# Assay results published in article PMC11679705 (2024).
# Assays:
# [1] = tested on: F-SA5-T (DNA, G4) GGAAGGAGGGGTGACAGGG; experiment: FRET melting; conditions: 10 mM K+, 90 mM Li+; 10 mM lithium cacodylate, pH 7.2; 5 µM compound, 0.2 µM DNA
# [2] = tested on: F-ds26-T (DNA, duplex) CAATCGGATCGAATTCGATCCGATTG; experiment: FRET melting; conditions: 10 mM K+, 90 mM Li+; 10 mM lithium cacodylate, pH 7.2; 5 µM compound, 0.2 µM DNA
# [3] = tested on: F-SA3-T (DNA, G4) GGGGCTAATTGGGGCTGGTGG; experiment: FRET melting; conditions: 10 mM K+, 90 mM Li+; 10 mM lithium cacodylate, pH 7.2; 5 µM compound, 0.2 µM DNA
# [4] = tested on: SA5 (DNA, G4) GGAAGGAGGGGTGACAGGG; experiment: UV/Vis titration; design: unit not given here; conditions: 100 mM K+, 10 mM lithium cacodylate, pH 7.2, independent-and-equivalent-sites model
# [5] = tested on: ds26 (DNA, duplex) CAATCGGATCGAATTCGATCCGATTG; experiment: UV/Vis titration; conditions: 100 mM K+, 10 mM lithium cacodylate, pH 7.2, independent-and-equivalent-sites model
# [6] = tested on: EBR1 (DNA, G4) GGGCAGGGGGTGATGGGGAGGAGCCAGGG; experiment: UV/Vis titration; design: unit not given here; conditions: 100 mM K+, 10 mM lithium cacodylate, pH 7.2, independent-and-equivalent-sites model
# [7] = tested on: mit9438 (DNA, G4) GGCGTAGGTTTGGTCTAGGG; experiment: UV/Vis titration; design: unit not given here; conditions: 100 mM K+, 10 mM lithium cacodylate, pH 7.2, independent-and-equivalent-sites model
# [8] = tested on: F-mit9438-T (DNA, G4) GGCGTAGGTTTGGTCTAGGG; experiment: FRET melting; conditions: 10 mM K+, 90 mM Li+; 10 mM lithium cacodylate, pH 7.2; 5 µM compound, 0.2 µM DNA
# [9] = tested on: F-EBR1-T (DNA, G4) GGGCAGGGGGTGATGGGGAGGAGCCAGGG; experiment: FRET melting; conditions: 10 mM K+, 90 mM Li+; 10 mM lithium cacodylate, pH 7.2; 5 µM compound, 0.2 µM DNA
# [10] = tested on: F-21-T (DNA, G4) GGGTTAGGGTTAGGGTTAGGG; experiment: FRET melting; conditions: 10 mM K+, 90 mM Li+; 10 mM lithium cacodylate, pH 7.2; 5 µM compound, 0.2 µM DNA
# [11] = tested on: F-mit6363-T (DNA, G4) AGGGACGCGGGCGGGGGATATAGGGT; experiment: FRET melting; conditions: 10 mM K+, 90 mM Li+; 10 mM lithium cacodylate, pH 7.2; 5 µM compound, 0.2 µM DNA
Compound,ΔTm [2] [°C],Ka ([4]; 7 µM ligand),Ka ([5]; 7 µM ligand) [µM⁻¹],Ka ([6]; 7 µM ligand),Ka ([7]; 7 µM ligand),other results
CCCNc1cc2c3c(ccc4c3c1C(=O)N(CCCN(C)C)C4=O)C(=O)N(CCCN(C)C)C2=O,–,–,–,–,–,ΔTm [1]: 4.7 ± 1.0 °C
C[N+](C)(C)c1ccc(/C=C/c2cc(/C=C/c3ccc([N+](C)(C)C)cc3)c(/C=C/c3ccc([N+](C)(C)C)cc3)cc2/C=C/c2ccc([N+](C)(C)C)cc2)cc1,-4.7 ± 0.6,1.065,0.562,0.801,1.420,ΔTm [3]: 9.7 ± 0.6 °C
C[N+](C)(C)c1ccc(/C=C/c2cc(/C=C/c3ccc([N+](C)(C)C)cc3)cc(/C=C/c3ccc([N+](C)(C)C)cc3)c2)cc1,–,–,–,–,–,ΔTm [3]: 31.3 ± 0.6 °C; Ka ([4]; 4 µM ligand): 0.651; Ka ([5]; 4 µM ligand): 0.083 µM⁻¹; Ka ([6]; 4 µM ligand): 0.672; Ka ([7]; 4 µM ligand): 0.821
C[n+]1ccc(-c2c3nc(c(-c4cc[n+](C)cc4)c4ccc([nH]4)c(-c4cc[n+](C)cc4)c4nc(c(-c5cc[n+](C)cc5)c5ccc2[nH]5)C=C4)C=C3)cc1,–,–,–,–,–,ΔTm [8]: 31.0 ± 0.0 °C; ΔTm [1]: 29.0 ± 2.1 °C
C[n+]1ccc(/C=C/c2cc(/C=C/c3cc[n+](C)cc3)cc(/C=C/c3cc[n+](C)cc3)c2)cc1,–,1.411,0.165,0.528,1.167,–

# More lines, main results first:
ΔTm [2] [°C],Ka ([4]; 7 µM ligand),Ka ([5]; 7 µM ligand) [µM⁻¹],Ka ([6]; 7 µM ligand),Ka ([7]; 7 µM ligand),Compound,other results
9.0 ± 1.0,0.513,0.267,0.367,1.548,C[n+]1ccc(/C=C/c2cc(/C=C/c3cc[n+](C)cc3)c(/C=C/c3cc[n+](C)cc3)cc2/C=C/c2cc[n+](C)cc2)cc1,ΔTm [9]: 35.3 ± 0.6 °C; ΔTm [10]: 34.7 ± 0.0 °C; ΔTm [11]: 33.0 ± 0.0 °C
0.7 ± 0.6,–,–,–,–,NCCOc1cc(C(=O)Nc2cc(OCCN)c3ccccc3n2)nc(C(=O)Nc2cc(OCCN)c3ccccc3n2)c1,ΔTm [10]: 24.0 ± 1.1 °C
